Tests used:
[1] = Syneresis of Mueller-Hinton agar at various iota carrageenan concentrations with and without calcium; type: physicochemical; settings: 1 mM calcium added; media with 0.4%, 0.6% and 0.8% iota carrageenan
Procedure: In a second example, research was conducted to determine the ability of iota carrageenan to stabilize agar gels at a variety of concentrations of carrageenan with and without calcium. The results of this research are summarized in the tables of FIG. 41A entitled: “The Effect of Iota Carrageenan, Without Added Calcium, on Syneresis of Mueller-Hinton Agar,” and in FIG. 42A, entitled: “The Effect of Iota Carrageenan, with 1 mM added Calcium, on Syneresis of Mueller-Hinton Agar. The graphs associated with the above two figures found in FIG. 41B and 42B pictorially illustrate the syneresis-reducing-effect of iota carrageenan and the synergistic effects of adding calcium with certain concentrations of iota carrageenan

[2] = Syneresis of agar-based media (Blood, Chocolate, MacConkey, Azide blood agar) after storage; type: physicochemical; settings: 0.2% iota carrageenan plus 1 mM calcium chloride; each of four agars; 28 days at 5° C.
Procedure: In a first example, the ability of iota carrageenan to stabilize agar-based media was assessed. The media chosen for this example were used in several of the embodiments of the agar-based media of the invention listed in this application. More specifically, in this example, Blood agar, Chocolate agar, MacConkey agar, and Azide blood agar were each prepared three different ways: (1) without any additions, to serve as a control, (2) with the addition of 0.2% (final concentration) Iota Carrageenan, and (3) with the addition of 0.2% Iota Carrageenan plus 1 mM Calcium chloride. These additions were made at time of hydration as described above, and prior to autoclaving. Following the sterilization step (autoclaving), the processes of preparing blood agar, chocolate agar and azide blood agar from the base media were performed using standard microbiology methods. Defibrinated sterile sheep red blood cells and sodium azide were two of the reagents used. The complete MacConkey medium was prepared using all three ways prior to autoclaving. Each of the twelve different media were dispensed at 50° C. into four polystyrene sterile T-flasks (25 cm^2) with tight-fitting screw caps and stored for 28 days at refrigerator temperature(5° C.), at which point the amount of water of syneresis was measured. […]

[Ca+2].[Cl-].[Cl-] [calcium, Calcium chloride]
syneresis of Mueller-Hinton agar, effect of adding calcium [1]: effect of adding calcium is also apparent
amount of water of syneresis, effect of adding calcium to carrageenan media [2]: further reduced the amount of syneresis
